From PubChem BioAssay (NCI) come the findings set out here.

Among the test systems are SW-620 colon; NCI-H226 lung; SF-268 CNS; T-47D breast; SK-MEL-28 melanoma; SNB-75 CNS; OVCAR-4 ovarian; OVCAR-8 ovarian; K-562 leukemia; MDA-MB-231 breast.
Common to all, as to assay: NCI anticancer screen, dose series, 48 h

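Grown in 96-well plates, cells were treated for 48 hours with each compound at five concentrations. Insufficient inhibition: endpoint recorded as highest concentration tested. GI50: concentration for 50% inhibition of growth. TGI is the concentration that stops growth completely.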

Regarding `O=C1c2ccc3c4c(ccc(c24)C(=O)N1CCCNCc1ccccc1Cl)C(=O)N(CCCNCc1ccccc1Cl)C3=O`, the GI50 in the assay with SW-620 colon is 128 nM; with NCI-H226 lung it was 659 nM; with SF-268 CNS, 477 nM; in the assay with T-47D breast it was 787 nM; in the assay on SK-MEL-28 melanoma, 776 nM; in the assay on SNB-75 CNS, 716 nM. The GI50 in the assay on OVCAR-4 ovarian is 89.1 nM; in the assay with OVCAR-8 ovarian it was 148 nM; with K-562 leukemia, 183 nM; in the assay on MDA-MB-231 breast, 250 nM. In addition, the TGI in the assay with SW-620 colon worked out at 361 nM; in the assay with NCI-H226 lung, 1490 nM; in the assay on SF-268 CNS, 1490 nM; in the assay with T-47D breast it was 2170 nM; in the assay on SK-MEL-28 melanoma, 1480 nM; with SNB-75 CNS, 1470 nM. Besides, the TGI with OVCAR-4 ovarian is 182 nM; in the assay with OVCAR-8 ovarian it was 533 nM; with K-562 leukemia, 1120 nM; with MDA-MB-231 breast, 2200 nM.

Regarding `N#CSCc1ccc(Cl)c(CSC#N)c1`, the GI50 in the assay with SW-620 colon is 39.5 nM; in the assay with NCI-H226 lung it was 3110 nM; with SF-268 CNS, 298 nM; in the assay with T-47D breast, 15700 nM; in the assay on SK-MEL-28 melanoma it was 3580 nM; in the assay on SNB-75 CNS, 601 nM. Besides, the GI50 was 659 nM in the assay with OVCAR-4 ovarian, 298 nM in the assay on OVCAR-8 ovarian, 57.6 nM in the assay on K-562 leukemia and 2360 nM in the assay with MDA-MB-231 breast. Also, the TGI came out at 15700 nM with SW-620 colon; 10300 nM with NCI-H226 lung; 37400 nM in the assay on SF-268 CNS; 51800 nM in the assay on T-47D breast; 22400 nM in the assay on SK-MEL-28 melanoma; 59900 nM with SNB-75 CNS. Besides, the TGI in the assay with OVCAR-4 ovarian was 19400 nM; in the assay with OVCAR-8 ovarian, greater than 73600 nM; in the assay on K-562 leukemia, greater than 45500 nM; with MDA-MB-231 breast, greater than 64000 nM.

On to `CC1=C(CCC(C)NCc2ccc(OCCCN3CCCCC3)cc2)C(C)(C)CCC1` (stereo not given), for which the GI50 in the assay on SW-620 colon is 1600 nM; in the assay with NCI-H226 lung, 3820 nM; in the assay with SF-268 CNS it was 1490 nM; in the assay on T-47D breast, 1630 nM; in the assay on SK-MEL-28 melanoma, 1380 nM; with SNB-75 CNS, 1390 nM. Besides, the GI50 in the assay with OVCAR-4 ovarian is 1990 nM; in the assay on OVCAR-8 ovarian, 2480 nM; in the assay with K-562 leukemia, 227 nM; in the assay on MDA-MB-231 breast, 1020 nM. In addition, the TGI in the assay on SW-620 colon turned out to be 3320 nM; in the assay with NCI-H226 lung, 16500 nM; in the assay with SF-268 CNS, 3080 nM; with T-47D breast it was 3650 nM; in the assay with SK-MEL-28 melanoma it was 2830 nM; in the assay on SNB-75 CNS it was 2720 nM. The TGI was 5500 nM in the assay on OVCAR-4 ovarian, 5310 nM in the assay on OVCAR-8 ovarian, 509 nM with K-562 leukemia and 2730 nM with MDA-MB-231 breast.
